# Data as given in patent publication US9526720B2, “Modulators of hepatic lipoprotein metabolism” (The Broad Institute, Inc., priority 2012, dated 2016).
# Like-named read-outs stand apart in the source and are kept apart here.
# Experiments:
# [1] = test system: SCAP; assay: qPCR SCAP transcript level in HepG2 cells; format: cell-based, human; set-up: key: A: Increase <2-fold; B: Increase >2-fold; X: Decrease <2-fold; Y: Decrease >2-fold; No significant change
# Experimental: (§1) In the primary screen, HepG2 cells were plated in 384-well plates at 2000 cells per well and incubated for 20 hours with each compound in duplicate at 10 microM concentration. Then RNA was isolated, reverse-transcribed to cDNA, and stored at −80° C. Expression levels of TRIB1 and other target genes, such as SORT1 and PCSK9, were determined by quantitative PCR. Relative gene expression level was normalized to expression of the housekeeping gene, GAPDH. A “hit” was defined as those compounds that caused a greater than 2-fold increase in relative target gene expression when normalized to GAPDH expression, compared to DMSO-treated control. Using these criteria, 130 hits were identified for TRIB1 (0.8% hit rate).
# (§2) Further analysis of the expression levels of various proteins in the cholesterol and triglyceride biosynthetic pathways in response to TRIB1 inducer treatment was performed. In particular, transcript levels of additional lipoprotein metabolism pathway proteins SCAP, SREBF1, SREBF2, HMGCR, HMGCS, SCD1, FASN and MTTP were assessed by qPCR, along with TRIB1, LDLR, and PCSK9. The gene expression profile for the same subset of genes was also assessed after treatment with the statin atorvastatin (Lipitor), commonly used in therapy for hypercholesterolemia and other cardiovascular diseases.
# [2] = test system: ApoB; assay: ELISA of secreted ApoB in HepG2 cells; format: cell-based, human; set-up: key to ELISA 24 Hr (EC50 uM) ApoB decrease: A: EC50 between 0.0000001 μM≦0.5 μM; B: EC50 between 0.51 μM≦1.0 μM; EC50 between 1.1 μM≦2.0 μM; D: EC50 between 2.1 μM≦5.0 μM; EC50 between 5.1 μM≦10 μM; F: EC50>10 μM; NC: No change; details: for ELISA ApoB: HepG2 cells; for EC50: Homo sapiens, HepG2, 24 h, read-out: ELISA 24 Hr (EC50 uM) ApoB decrease
# Experimental: (§3) Additional secondary assays were performed in HepG2 cells to further characterize the cellular response to treatment with select confirmed TRIB1 inducer hits. The results of the ELISA, CTG, and qPCR secondary assays are summarized in Table B. For all secondary assays, the experiments were performed using powders of freshly purified compounds.
# (§4) To further characterize the relationship of TRIB1 induction and PCSK9 reduction, ELISAs were performed to measure the levels of secreted ApoB, PCSK9, and LDLR. […] As predicted treatment with TRIB1 inducer hits caused a decrease in ApoB levels detected by ELISA. In parallel effort, 3200 BIOA and NATP compounds were screened for PCSK9 expression inhibitors. Hits were defined as inducing greater than 3-fold downregulation of PCSK9, and 3.8% of the screened compounds were confirmed as hits. […] In further experiments, a strong correlation was confirmed between TRIB1 induction and PCSK9 repression in DOS Collection hits. ELISA analysis confirmed that treatment with TRIB1 inducers reduced the PCSK9 protein levels. LDLR protein levels were also analyzed by ELISA to determine whether compounds that modulate both TRIB1 and PCSK9 had any effect on LDLR protein levels.
# [3] = test system: SCD1; assay: qPCR SCD1 transcript level in HepG2 cells; format: cell-based; details: Homo sapiens, 20 h
# Experimental: as §1, §2
# [4] = test system: TRIB1; assay: qPCR TRIB1 expression in HepG2 cells; format: cell-based, human; set-up: key to qPCR TRIB1: A: Increase <2-fold; B: Increase >2-fold; X: Decrease <2-fold; Y: Decrease >2-fold; No significant change
# Experimental: as §1, §2
# (§5) The kinetics of the modulation of TRIB1, LDLR, PCSK9 and MTTP gene expression after treatment by select TRIB1 inducer compounds was monitored by qPCR analysis (FIG. 4). RNA was extracted from cells at various timepoints over 28 hours of treatment (0, 2, 4, 6, 8, 24, 28 hours). Specifically, compounds 12a and 14a induced transcriptional responses over time similar to those produced by berberine, a plant alkaloid used in Chinese medicine. […] Both compound 12a and compound 14a induce TRIB1 and LDLR and repress PCSK9 and MTTP expression with similar kinetics and similar fold change as berberine Importantly, both compounds induce these gene expression changes at much lower concentrations than berberine. […] This increased potency indicates the potential therapeutic efficacy of such compounds for treatment of cardiovascular diseases, particularly hypercholesterolemia and related conditions.
# [5] = test system: FASN; assay: qPCR FASN transcript level in HepG2 cells; format: cell-based; details: Homo sapiens, 20 h
# Experimental: as §1, §2
# [6] = test system: HMGCR; assay: qPCR HMGCR transcript level in HepG2 cells; format: cell-based, human; set-up: key: A: Increase <2-fold; B: Increase >2-fold; X: Decrease <2-fold; Y: Decrease >2-fold; No significant change
# Experimental: as §1, §2
# [7] = test system: PCSK9; assay: qPCR PCSK9 expression in HepG2 cells; format: cell-based, human; details: for fold induction at 10 µM / EC50: Homo sapiens; for fold induction at 10 µM: 20 h, HepG2 cells; for EC50: HepG2, 24 h, read-out: qPCR 24 Hr (EC50 uM) PCSK9 down-regulation
# Experimental: as §1, §2, §5
# [8] = test system: PCSK9; assay: ELISA of secreted PCSK9 protein in HepG2 cells; format: cell-based, human; details: for ELISA PCSK9: HepG2 cells; for EC50: Homo sapiens, HepG2, 24 h, read-out: ELISA 24 Hr (EC50 uM) PCSK9 decrease
# Experimental: as §3, §4
# [9] = test system: LDLR; assay: ELISA of LDLR protein in HepG2 cells; format: cell-based, human; details: for ELISA LDLR: HepG2 cells; for EC50: Homo sapiens, HepG2, 24 h, read-out: ELISA 24 Hr (EC50 uM) LDLR increase
# Experimental: as §3, §4
# [10] = test system: SREBF2; assay: qPCR SREBF2 transcript level in HepG2 cells; format: cell-based, human
# Experimental: as §1, §2
# [11] = test system: LDLR; assay: qPCR LDLR expression in HepG2 cells; format: cell-based, human; details: for qPCR LDLR: HepG2 cells; for EC50: Homo sapiens, HepG2, 6 h, read-out: qPCR 6Hr (EC50 uM) LDLR up-regulation
# Experimental: as §1, §2, §5
# [12] = test system: HMGCS; assay: qPCR HMGCS transcript level in HepG2 cells; format: cell-based; details: Homo sapiens, 20 h
# Experimental: as §1, §2
# [13] = test system: HepG2 cells; assay: Cell Titer Glo (CTG) cell viability assay; format: cell-based, human; set-up: key: A: Increase <2-fold; B: Increase >2-fold; X: Decrease <2-fold; Y: Decrease >2-fold; No significant change; details: cell viability (ATP)
# Experimental: Cell viability was determined using a Cell Titer Glo (CTG) assay ([…]) after treatment with TRIB1 inducer compounds. In this assay, the number of viable cells in culture is based on quantitation of ATP, which indicates metabolically active cells. Addition of the reagent results in cell lysis and generation of a luminescent signal proportional to the amount of ATP present, which is directly proportional to the number of viable, metabolically active cells present in culture. Most TRIB1 inducer compounds had no significant effect on cell viability.
# [14] = test system: SREBF1; assay: qPCR SREBF1 transcript level in HepG2 cells; format: cell-based, human; set-up: key: A: Increase <2-fold; B: Increase >2-fold; X: Decrease <2-fold; Y: Decrease >2-fold; No significant change
# Experimental: as §1, §2
# [15] = test system: TRIB1; assay: qPCR TRIB1 expression in HepG2 cells; format: cell-based; details: Homo sapiens
# [16] = HepG2, induction of TRIB1 and LDLR transcript levels, read-out: half maximal effective concentration (EC50)
# [17] = HepG2, 6 h, read-out: qPCR 6Hr (EC50 uM) TRIB1 up-regulation
SMILES,"EC50 [15, 17] [µM]",EC50 [9] [µM],EC50 [11] [µM],EC50 [2] [µM],EC50 [7] [µM],EC50 [8] [µM],also measured
"CC(C)c1c(C(=O)Nc2ccccc2)c(-c2ccccc2)c(-c2ccc(F)cc2)n1CC[C@@H](O)C[C@@H](O)CC(=O)O [Atorvastatin, atorvastatin, reference compound]",,,,,,,"qPCR SCAP [1]: N; ELISA ApoB [2]: X (Decrease <2-fold); fold induction at 10 µM [3]: < 2; TRIB1 expression (in words) ([4]; HepG2, qPCR): did not significantly affect; qPCR TRIB1 ([4]; HepG2 cells): N; fold induction at 10 µM [5]: < 2; qPCR HMGCR [6]: N; fold induction at 10 µM [7]: > 2; increase of PCSK9 mRNA levels ([7]; time course, HepG2): ~2 fold; ELISA PCSK9 [8]: A (Increase <2-fold); ELISA LDLR [9]: A (Increase <2-fold); qPCR SREBF2 [10]: A (Increase <2-fold); qPCR LDLR [11]: B (Increase >2-fold); increase of LDLR mRNA levels ([11]; time course, HepG2): ~2 fold; fold induction at 10 µM [12]: < 2; CTG [13]: N; qPCR SREBF1 [14]: N"
Cc1cc(C(=O)Nc2ccc3c(c2)C(=O)N(C)[C@H]2CC[C@@H](CC(=O)NCc4ccc(-c5ccccc5)cc4)O[C@@H]2CO3)no1 [Compound 3a],,,,,,,"qPCR SCAP [1]: N; ELISA ApoB [2]: Y (Decrease >2-fold); fold induction at 10 µM [3]: > 2; fold induction at 10 µM ([4]; Homo sapiens, 20 h, HepG2 cells): > 2; fold induction at 10 µM [5]: > 2; qPCR HMGCR [6]: Y (Decrease >2-fold); fold induction at 10 µM [7]: > 2; ELISA PCSK9 [8]: X (Decrease <2-fold); ELISA LDLR [9]: B (Increase >2-fold); qPCR SREBF2 [10]: B (Increase >2-fold); qPCR LDLR [11]: B (Increase >2-fold); fold induction at 10 µM [12]: > 2; CTG [13]: N; qPCR SREBF1 [14]: N"
CN1C(=O)c2cc(NC(=O)Nc3ccccc3F)ccc2OC[C@@H]2O[C@H](CC(=O)NCc3ccc(-c4ccccc4)cc3)CC[C@@H]21 [Compound 15a],,,,,,,"EC50 [15, 16]: < 1 µM"
COCC(=O)Nc1ccc2c(c1)C(=O)N(C)[C@H]1CC[C@@H](CC(=O)NC3Cc4ccccc4C3)O[C@H]1CO2 [Compound 16a],,,,,,,"EC50 [15, 16]: < 1 µM"
CN(C)C(=O)c1ccc(-c2ccc([C@H]3[C@@H](C#N)N(C(=O)C4CCCCC4)[C@H]3CO)cc2)cc1 [Compound 17a],0.51 to 1,1.1 to 2,0.51 to 1,,,,"EC50 [15, 16]: < 1 µM"
CN(C)C(=O)c1ccc(-c2ccc([C@H]3[C@@H](C#N)N(C(=O)C4CCC4)[C@H]3CO)cc2)cc1 [Compound 18a],1.1 to 2,2.1 to 5,1.1 to 2,0.51 to 1,0.51 to 1,0.51 to 1,
CN(C)C(=O)c1ccc(-c2ccc([C@H]3[C@@H](C#N)N(C(=O)C4CCCC4)[C@H]3CO)cc2)cc1 [Compound 19a],2.1 to 5,2.1 to 5,1.1 to 2,2.1 to 5,1.1 to 2,1.1 to 2,
N#C[C@H]1[C@H](c2ccc(-c3cccc(F)c3)cc2)[C@@H](CO)N1C(=O)NC1CCCC1 [Compound 20a],2.1 to 5,1.1 to 2,2.1 to 5,> 10,0.51 to 1,1.1 to 2,
N#C[C@@H]1[C@H](c2ccc(-c3ccccc3F)cc2)[C@H](CO)N1C(=O)C1CCC1 [Compound 21a],2.1 to 5,5.1 to 10,5.1 to 10,> 10,0.51 to 1,1.1 to 2,
CN(C)C(=O)c1ccc(-c2ccc([C@H]3[C@@H](C#N)N(C(=O)C4CCC4)[C@@H]3CO)cc2)cc1 [Compound 22a],2.1 to 5,1.1 to 2,2.1 to 5,,1.1 to 2,2.1 to 5,ELISA 24 Hr (EC50 uM) ApoB decrease [2]: NC
CCCNC(=O)N1[C@H](C#N)[C@H](c2ccc(-c3cccnc3)cc2)[C@@H]1CO [Compound 23a],2.1 to 5,0.51 to 1,2.1 to 5,,1.1 to 2,1.1 to 2,ELISA 24 Hr (EC50 uM) ApoB decrease [2]: NC
N#C[C@@H]1[C@H](c2ccc(-c3cccc(F)c3)cc2)[C@@H](CO)N1C(=O)c1cccnc1 [Compound 24a],5.1 to 10,5.1 to 10,2.1 to 5,,,2.1 to 5,ELISA 24 Hr (EC50 uM) ApoB decrease [2]: NC
